The values that follow come from article PMC6009903, “Synthesis, biological activity and multiscale molecular modeling studies for coumaryl-carboxamide derivatives as selective carbonic anhydrase IX inhibitors” (Journal of Enzyme Inhibition and Medicinal Chemistry, 2017).

The melting point is the temperature, or range, at which the solid turns liquid. As a reminder, the Ki is the dissociation constant of the complex between target and ligand, obtained from inhibition or displacement. Lower therefore signals higher affinity.

In one data set the target is hCA I (Homo sapiens, UniProt P00915). The experiment in a line: CA inhibition assay, stopped-flow CO2 hydration.
Another data set has as its target hCA II (Homo sapiens, UniProt P00918). The experiment in a line: CA inhibition assay, stopped-flow CO2 hydration.
In a further data set the target is hCA VII (Homo sapiens, UniProt P43166). The experiment in a line: CA inhibition assay, stopped-flow CO2 hydration.
For a further data set, the target named is hCA IX (Homo sapiens, UniProt Q16790). Nature of the data set: CA inhibition assay, stopped-flow CO2 hydration.

Structures are written as SMILES.

hCA VII, sequence (P43166 whole entry): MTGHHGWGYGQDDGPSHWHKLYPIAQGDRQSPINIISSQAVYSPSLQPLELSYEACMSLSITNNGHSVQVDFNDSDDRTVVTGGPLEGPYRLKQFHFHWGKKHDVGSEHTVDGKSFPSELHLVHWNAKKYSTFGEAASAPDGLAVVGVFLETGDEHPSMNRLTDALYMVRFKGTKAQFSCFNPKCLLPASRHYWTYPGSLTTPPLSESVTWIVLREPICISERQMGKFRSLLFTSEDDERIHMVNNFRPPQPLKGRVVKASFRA
hCA I, sequence (P00915 whole entry): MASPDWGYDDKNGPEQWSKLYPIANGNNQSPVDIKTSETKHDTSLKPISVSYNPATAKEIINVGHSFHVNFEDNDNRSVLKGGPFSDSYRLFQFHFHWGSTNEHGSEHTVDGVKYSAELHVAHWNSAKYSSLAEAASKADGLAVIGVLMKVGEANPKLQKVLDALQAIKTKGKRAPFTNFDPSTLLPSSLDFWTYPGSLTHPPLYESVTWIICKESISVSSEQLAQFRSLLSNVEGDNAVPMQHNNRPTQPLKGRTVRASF
Source text for hCA II: (§1) An SX.18 MV-R Applied Photophysics (Oxford, UK) stopped-flow instrument has been used to assay the catalytic/inhibition of various CA isozymes[51]. […] The inhibition constants were obtained by non-linear least-squares methods using the Cheng–Prusoff equation, as reported earlier[39] and represent the mean from at least three different determinations. All CA isozymes used here were recombinant proteins obtained as reported earlier by our group[27]^,[32]^,[40]^,[52].
Source text for hCA IX: as §1
Source text for hCA VII: as §1

Consider `CNC(=S)NC(=O)c1cc2ccccc2oc1=O` [e1, N-(methylcarbamothioyl)-2-oxo-2H-chromene-3-carboxamide], for which the melting point was 146 to 148 °C. In addition, the Ki on hCA I was > 10 µM. Further, the inhibition constant Ki on hCA II was > 10 µM. The Ki on hCA VII is > 10 µM. This compound also came in with an inhibition constant Ki on hCA IX of 0.323 µM.
Take `CCCNC(=S)NC(=O)c1cc2ccccc2oc1=O` [e2, 2-oxo-N-(propylcarbamothioyl)-2H-chromene-3-carboxamide]: the melting point came out at 123 °C. Besides, at hCA I, the Ki is > 10 µM. In addition, the inhibitory constant (Ki) at hCA II is > 10 µM. Further, the inhibition constant Ki at hCA VII was > 10 µM. The compound further returned an inhibitory constant (Ki) at hCA IX of 0.286 µM.
Compound `CCN(CC)C(=S)NC(=O)c1cc2ccccc2oc1=O` [e3, N-(diethylcarbamothioyl)-2-oxo-2H-chromene-3-carboxamide] showed a melting point of 143 °C. The Ki at hCA I is > 10 µM. In addition, the Ki at hCA II was > 10 µM. Further, the inhibition constant Ki on hCA VII is > 10 µM. In addition, the affinity at hCA IX corresponds to a Ki of 0.376 µM.
Consider `CC(C)N(C(=S)NC(=O)c1cc2ccccc2oc1=O)C(C)C` [e4, N-(diisopropylcarbamothioyl)-2-oxo-2H-chromene-3-carboxamide], for which the melting point lay within 150 to 151 °C. The Ki on hCA I is > 10 µM. Besides, the inhibitory constant (Ki) on hCA II is > 10 µM. Also, the Ki at hCA VII was > 10 µM. The Ki at hCA IX was found to be 0.351 µM.
For the compound `O=C(NC(=S)NC1CCCCC1)c1cc2ccccc2oc1=O` [e5, N-(cyclohexylcarbamothioyl)-2-oxo-2H-chromene-3-carboxamide], the inhibition constant (Ki) was > 10 µM on hCA I, > 10 µM at hCA II, > 10 µM at hCA VII and 0.115 µM at hCA IX.
`O=C(NC(=S)N1CCCC1)c1cc2ccccc2oc1=O` [e6, 2-oxo-N-(pyrrolidine-1-carbonothioyl)-2H-chromene-3-carboxamide] had a melting point of 162 to 163 °C. Moreover, at hCA I, the Ki is > 10 µM. For the same compound, the Ki on hCA II is > 10 µM. Moreover, on hCA VII, the Ki is > 10 µM. Also, on hCA IX, the Ki was determined as 0.298 µM.
In turn, `O=C(NC(=S)N1CCCCC1)c1cc2ccccc2oc1=O` [e7, 2-oxo-N-(piperidine-1-carbonothioyl)-2H-chromene-3-carboxamide] had a melting point of 175 to 176 °C. In addition, the Ki at hCA I is > 10 µM. For the same compound, the Ki at hCA II was > 10 µM. Besides, the inhibition constant Ki on hCA VII is > 10 µM. For the same compound, at hCA IX, the inhibition constant (Ki) amounted to 0.202 µM.
In turn, `CN1CCN(C(=S)NC(=O)c2cc3ccccc3oc2=O)CC1` [e8, N-(4-methylpiperazine-1-carbonothioyl)-2-oxo-2H-chromene-3-carboxamide] had a melting point of 162 to 164 °C. The inhibition constant Ki on hCA I was > 10 µM. In addition, at hCA II, the Ki is > 10 µM. In addition, the Ki at hCA VII was > 10 µM. Also, the affinity on hCA IX, expressed as Ki, was 0.128 µM.
`O=C(NC(=S)N1CCOCC1)c1cc2ccccc2oc1=O` [e9, N-(morpholine-4-carbonothioyl)-2-oxo-2H-chromene-3-carboxamide] gave a melting point of 123 to 125 °C. Further, the Ki on hCA I is > 10 µM. Moreover, the Ki on hCA II is > 10 µM. Moreover, the Ki at hCA VII is > 10 µM. On hCA IX, this compound registered a Ki of 0.136 µM.
In the case of `O=C(NC(=S)NC1Cc2ccccc2C1)c1cc2ccccc2oc1=O` [e10, N-((2,3-dihydro-1H-inden-2-yl)carbamothioyl)-2-oxo-2H-chromene-3-carboxamide], the inhibition constant Ki is > 10 µM on hCA I, > 10 µM on hCA II, > 10 µM at hCA VII and 0.13 µM at hCA IX.
Take `O=C(NC(=S)NCCN1CCCC1)c1cc2ccccc2oc1=O` [e11, 2-oxo-N-((2-(pyrrolidin-1-yl)ethyl)carbamothioyl)-2H-chromene-3-carboxamide]: the melting point fell in the range of 131 to 132 °C. For the same compound, at hCA I, the Ki was > 10 µM. Also, at hCA II, the Ki is > 10 µM. In addition, the Ki on hCA VII was > 10 µM. In addition, on hCA IX, the inhibition constant (Ki) came to 0.108 µM.
The compound `O=C(NC(=S)NCCN1CCOCC1)c1cc2ccccc2oc1=O` [e12, N-((2-morpholinoethyl)carbamothioyl)-2-oxo-2H-chromene-3-carboxamide] registered a melting point of 136 to 138 °C. The inhibition constant (Ki) on hCA I is > 10 µM. For the same compound, the Ki at hCA II is > 10 µM. Also, at hCA VII, the Ki is > 10 µM. Further, the Ki at hCA IX amounted to 0.224 µM.
Take `O=C(NC(=S)NCCC1=CCCCC1)c1cc2ccccc2oc1=O` [e13, N-((2-(cyclohex-1-en-1-yl)ethyl)carbamothioyl)-2-oxo-2H-chromene-3-carboxamide]: the melting point was in the range of 142 to 143 °C. Also, the inhibitory constant (Ki) at hCA I was > 10 µM. Moreover, the Ki on hCA II is > 10 µM. Besides, on hCA VII, the Ki was > 10 µM. Besides, at hCA IX, the Ki was determined as 0.18 µM.
The compound `COc1ccc(CCNC(=S)NC(=O)c2cc3ccccc3oc2=O)cc1OC` [e14, N-((3,4-dimethoxyphenethyl)carbamothioyl)-2-oxo-2H-chromene-3-carboxamide] showed a melting point of 148 to 149 °C. Further, on hCA I, the Ki is > 10 µM. Moreover, the Ki at hCA II was > 10 µM. On hCA VII, the Ki is > 10 µM. The compound also yielded a Ki on hCA IX of 0.196 µM.
Turning to `O=C(NC(=S)NCc1ccc2c(c1)OCO2)c1cc2ccccc2oc1=O` [e15, N-((benzo[d][1,3]dioxol-5-ylmethyl)carbamothioyl)-2-oxo-2H-chromene-3-carboxamide], the melting point fell in the range of 188 to 190 °C. Further, the Ki on hCA I is > 10 µM. Further, at hCA II, the inhibitory constant (Ki) is > 10 µM. For the same compound, the Ki at hCA VII is > 10 µM. On hCA IX, the affinity corresponds to a Ki of 0.184 µM.
`O=C(NC(=S)NN1CCOCC1)c1cc2ccccc2oc1=O` [e16, N-(morpholinocarbamothioyl)-2-oxo-2H-chromene-3-carboxamide] returned a melting point of 180 to 182 °C. In addition, the Ki on hCA I is > 10 µM. For the same compound, the Ki on hCA II is > 10 µM. For the same compound, the Ki at hCA VII was > 10 µM. Affinity at hCA IX was put at a Ki of 2.59 µM.
`CN1CCN(NC(=S)NC(=O)c2cc3ccccc3oc2=O)CC1` [e17, N-((4-methylpiperazin-1-yl)carbamothioyl)-2-oxo-2H-chromene-3-carboxamide]: the melting point was found to be 204 °C. The inhibition constant Ki at hCA I was > 10 µM. Also, the inhibition constant (Ki) at hCA II is > 10 µM. Moreover, the inhibition constant (Ki) at hCA VII is > 10 µM. This compound also had a Ki at hCA IX of 0.259 µM.
Compound `O=C(NC(=S)NN1CCCCC1)c1cc2ccccc2oc1=O` [e18, 2-oxo-N-(piperidin-1-ylcarbamothioyl)-2H-chromene-3-carboxamide] gave a melting point of 206 °C. At hCA I, the Ki was > 10 µM. The Ki at hCA II was > 10 µM. Moreover, at hCA VII, the inhibition constant (Ki) was > 10 µM. On hCA IX, this compound gave a Ki of 0.387 µM.
With `O=C(NC(=S)NCCN1CCNCC1)c1cc2ccccc2oc1=O` [e19, 2-oxo-N-((2-(piperazin-1-yl)ethyl)carbamothioyl)-2H-chromene-3-carboxamide], the melting point was 163 to 165 °C.
`CN(C)CCCNC(=S)NC(=O)c1cc2ccccc2oc1=O` [e20, N-((3-(dimethylamino)propyl)carbamothioyl)-2-oxo-2H-chromene-3-carboxamide] had a melting point of 100 °C. Also, on hCA I, the inhibition constant Ki was > 10 µM. Also, the Ki at hCA II is > 10 µM. The Ki at hCA VII was > 10 µM. The same compound returned a Ki at hCA IX of 0.182 µM.
